Test results: patent US10258692B2, “Oral pharmaceutical formulation of BCS class III molecules” (ETHYPHARM, priority 2012, dated 2019)
≈ marks a conversion by molar mass, not a printed value. Read-outs that look alike come from different tables or passages of the source. One block for each compound: values may come before it.

How the values were obtained:
[1] = Baclofen solubility assays (visual method); type: physicochemical; conditions: for solubility at 24 h: thermodynamic from solid
Method: Beforehand it is important to determine the solubility of the active ingredient in the excipients to be evaluated. For the purpose of cell assays, it is important that the active ingredient should be in molecular form to obtain cross-membrane transport. Solubility was determined via visual method by adding exactly weighed quantities of baclofen to the selected excipients, after being left under agitation for 24 h. First the solubility of baclofen at ambient temperature in Labrasol®, Miglyol® 810 and Captex® 355 was determined. The solubility of baclofen in Gélucire® 50/13 was determined after melting the excipient at a temperature higher than 50° C. and placing thereof in a thermostat-controlled oven at 60° C. At a second step, to increase the solubility of baclofen in an aqueous medium, this solubility was determined in an acidified solution of 0.01 M fumaric acid.
The solubility values indicated in Table 7 below were determined in relation to visual observation of particles in the media.

[2] = Benet, et al., 2011; cited from earlier work
[3] = Physicochemical characteristics of baclofen (internal report)
Method: Baclofen (FIG. 1) is a BCS class III molecule.
The transport mechanism of baclofen (Merino, et al., 1989) is active transport by means of transporters but these are saturated at high dose. Not knowing the transporter composition of the Caco-2 cells, it is sought to have a high concentration of baclofen in the formulas so that the transporters that are present are saturated. Therefore only the increase in paracellular transport was evaluated. The saturation concentration of baclofen in water is 3 mg/ml (internal pre-formulation report). However, its solubility is highly dependent on pH as indicated by the amine and carboxylic functions present on the molecule. Therefore the addition of 0.01 M fumaric acid shown to be compatible with baclofen by the internal pre-formulation report, allows the solubility of baclofen to be increased twofold to 6 mg/ml. The pH is then 3.88.

[4] = test system: Caco-2 cells; experiment: Permeability assay on Caco-2 cells (apparent permeability); type: in vitro ADME, human; conditions: Caco-2, apical pH 6.8 to basolateral pH 7.4; listed as non-formulated baclofen
Description: (§1) The Caco-2 cells are derived from the culture of human cells of cancerous origin capable of differentiating in the presence of a suitable culture medium (Pontier, 1997-1998). Their properties are a function of the number of subcultures to which they are subjected. […] The brush-border is differentiated and developed with very tight junctions of 10 to 50 Å (narrower than those of the small intestine). From a biochemical viewpoint, Caco-2 cells also express the enzymes of the enterocytes. In addition, numerous transporters are present but their expression is lower than the levels found in vivo and the P-gp efflux pump is over-expressed which may underestimate absorption compared with in vivo.
(§2) The Caco-2 cells were placed in culture and differentiated over 21 to 30 days. They were subjected to a number of subcultures of less than 110. The culture medium was DMEM (Dulbecco's Modified Eagle Medium) supplemented with inactivated 10% foetal calf serum, with 1% non-essential amino acids and antibiotics.
(§3) The Caco-2 cells allowed evaluation of the potential of eight formulas given in Tables 5a, 5b, 5c and 5d, for improvement in the apparent permeability of baclofen. The dilutions are those chosen by the subcontractor as a function of baclofen concentration measured by the assay technique and as a function of the […] non-toxic concentration given by preliminary toxicity studies.
(§4) Samples were taken after the placing the test specimen in the apical medium: at T5 minutes and T125 minutes in the donor compartment and at T65 minutes and T125 minutes in the receiver compartment. […]
(§5) The apparent permeability of baclofen and the recovery ratio were calculated as follows: Papp=[ΔQ/(Δt×A)]/C0 where Papp=apparent permeability (cm·s^−1) • ΔQ=difference in amount of baclofen measured between the two samplings • Δt=time interval between the two samplings • A=exposure surface area (cm^2) • C0=initial concentration deposited in the donor compartment.
(§6) Each assay was performed three times. For the validity of the assay, the permeability of a reference compound was also measured as positive control. […]

[5] = as above; type: in vitro ADME, human; conditions: human
Description: as §1, §2, §3, §4, §5, §6

[6] = test system: Caco-2 cells; experiment: Lucifer Yellow test (paracellular transport, tight junctions); type: cell-based, human
Description: Lucifer yellow (LY) is a marker of paracellular transport (Buyukorturk, et al., 2010). Its measurement in the receiver compartment during the permeability assay allows observation of the opening of the tight junctions. Measurement can also be performed after the assay to evaluate cell integrity (Nollevaux, et al., 2006). The apparent permeability of Lucifer Yellow under normal conditions is […] (Oroxcell, 2011).
Throughout the assays the crossing of Lucifer Yellow from the apical to the basolateral compartment, a marker of paracellular transport, was also evaluated. 200 μM of Lucifer Yellow was co-incubated with the test compound and its permeability evaluated in the same manner as for the latter. Concentrations were measured by fluorescence in both compartments at the start and at the end of the assay.

- pH of the baclofen solution ([1]; 6 mg/ml baclofen in 0.01 M fumaric acid): 3.88
- solubility at 24 h ([1]; 0.01 M fumaric acid aqueous solution, pH 3.88, aqueous buffer, in 0.01M fumaric acid aqueous medium, ambient, read-out: Solubility of baclofen): 6000 to 7000 µg/mL (≈ 28.1 to 32.8 mM)
- solubility at 24 h ([1]; Gélucire 50/13 (molten), oil or lipid, in Gélucire ® 50/13, 60° C., read-out: Solubility of baclofen): 500 to 1000 µg/mL (≈ 2.34 to 4.68 mM)
- solubility in words ([1]; aqueous medium): soluble
- solubility at 24 h ([1]; liquid absorption enhancers, oil or lipid, read-out: solubility of the active ingredient in the liquid absorption enhancers): < 1000 µg/mL
- solubility in words ([1]; oil excipients): practically insoluble
- solubility at 24 h ([1]; oil or lipid, in Captex ® 355, ambient, read-out: Solubility of baclofen): < 100 µg/mL
- solubility at 24 h ([1]; oil or lipid, in Labrasol ®, ambient, read-out: Solubility of baclofen): 200 to 400 µg/mL (≈ 0.936 to 1.87 mM)
- solubility at 24 h ([1]; oil or lipid, in Miglyol ® 810, ambient, read-out: Solubility of baclofen): < 100 µg/mL
- logP [3]: -1
- pH of a saturated solution [3]: 6.5
- pKa1 [3]: pKa1 = 3.87
- pKa2 [3]: pKa2 = 9.62
- Solubility ([3]; 0.1N HCl, 0.1N NaOH): Soluble: 0.1N HCl, 0.1N NaOH
- Solubility ([3]; Ethanol, Methanol): Very slightly soluble: Ethanol, Methanol
- Solubility ([3]; water, read-out: Solubility (saturation concentration) in water): 3000 µg/mL (≈ 14 mM)
- apparent permeability of baclofen [4]: lower than 0.5×10^−6 cm/s
- Papp A→B at 125 min ([5]; Caco-2, Caco-2, apical pH 6.8 to basolateral pH 7.4, read-out: apparent permeability of baclofen): < 0.3 ×10⁻⁶ cm/s
SMILES: NCC(CC(=O)O)c1ccc(Cl)cc1 (stereo not drawn) [baclofen, Baclofen]
- log P [2]: −0.96

- Papp A→B at 125 min, 20 μM ([5]; Caco-2, 20 μM metoprolol, positive control): > 6 ×10⁻⁶ cm/s
SMILES: COCCc1ccc(OCC(O)CNC(C)C)cc1 (stereo not drawn) [metoprolol]
- opening of the tight junctions, in words [6]: lack of effect
